Test results taken from article PMC3108484 (Frontiers in Pharmacology, 2011).
“And” between values parts separate entries of the source, which are not always exact repeats. Equal values may be shown once.

Legend:
Guinea pig H1 = Guinea pig H1 (Cavia porcellus, UniProt P31389); assay: Radioligand binding: Guinea pig H1
K+V channel = assay type: binding; details: [125I]-α-dendrotoxin 0.01 nM
Human D4.4 = Human D4.4 (Homo sapiens, UniProt P21917); assay: Radioligand binding: Human D4.4
Rat P2Y = assay: Radioligand binding: Rat P2Y; details: [35S]-dATP αS 10 nM
human Nav1.5 = human Nav1.5 (Homo sapiens, UniProt Q14524); assay: Whole cell voltage-clamp, cardiac sodium current; details: 3 μM for 3 min, n = 3 cells
rat esophagus = assay: Rat esophageal relaxation; assay type: in vivo; details: cumulative i.d. dosing, anesthetized rats
Human 5-HT6 = Human 5-HT6 (Homo sapiens, UniProt P50406); assay: Radioligand binding: Human 5-HT6
Sequence of Human 5-HT6 (P50406 whole entry): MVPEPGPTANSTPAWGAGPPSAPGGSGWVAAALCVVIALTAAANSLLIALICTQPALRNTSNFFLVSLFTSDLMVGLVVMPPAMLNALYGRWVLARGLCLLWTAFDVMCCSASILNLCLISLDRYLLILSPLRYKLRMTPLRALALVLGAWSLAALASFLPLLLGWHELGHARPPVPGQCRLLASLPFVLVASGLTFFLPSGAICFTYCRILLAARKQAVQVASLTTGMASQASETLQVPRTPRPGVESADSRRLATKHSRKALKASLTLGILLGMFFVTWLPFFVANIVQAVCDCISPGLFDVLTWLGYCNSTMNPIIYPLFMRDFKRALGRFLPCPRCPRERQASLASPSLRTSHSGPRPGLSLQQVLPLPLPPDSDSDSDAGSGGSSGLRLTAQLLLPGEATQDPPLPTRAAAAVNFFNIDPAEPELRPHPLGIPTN

Human CGRP = Human CGRP (Homo sapiens, UniProt O60894+Q16602); assay: Radioligand binding: Human CGRP
Guinea pig κ kappa = Guinea pig κ kappa (Cavia porcellus, UniProt P41144); assay: Radioligand binding: Guinea pig κ opiate receptor
Sequence of Guinea pig κ kappa (P41144 whole entry): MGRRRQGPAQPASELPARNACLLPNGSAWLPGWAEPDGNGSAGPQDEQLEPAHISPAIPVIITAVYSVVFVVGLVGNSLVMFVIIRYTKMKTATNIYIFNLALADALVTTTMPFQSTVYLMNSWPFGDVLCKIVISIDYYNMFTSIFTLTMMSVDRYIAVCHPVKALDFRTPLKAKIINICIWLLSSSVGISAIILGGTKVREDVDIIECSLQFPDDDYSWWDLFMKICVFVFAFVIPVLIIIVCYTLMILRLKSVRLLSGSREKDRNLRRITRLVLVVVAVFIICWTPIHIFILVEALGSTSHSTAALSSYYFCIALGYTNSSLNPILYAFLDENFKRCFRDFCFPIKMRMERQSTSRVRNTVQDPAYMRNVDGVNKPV

Human M5 = Human M5 (Homo sapiens, UniProt P08912); assay: Radioligand binding: Human M5
Sequence of Human M5 (P08912 whole entry): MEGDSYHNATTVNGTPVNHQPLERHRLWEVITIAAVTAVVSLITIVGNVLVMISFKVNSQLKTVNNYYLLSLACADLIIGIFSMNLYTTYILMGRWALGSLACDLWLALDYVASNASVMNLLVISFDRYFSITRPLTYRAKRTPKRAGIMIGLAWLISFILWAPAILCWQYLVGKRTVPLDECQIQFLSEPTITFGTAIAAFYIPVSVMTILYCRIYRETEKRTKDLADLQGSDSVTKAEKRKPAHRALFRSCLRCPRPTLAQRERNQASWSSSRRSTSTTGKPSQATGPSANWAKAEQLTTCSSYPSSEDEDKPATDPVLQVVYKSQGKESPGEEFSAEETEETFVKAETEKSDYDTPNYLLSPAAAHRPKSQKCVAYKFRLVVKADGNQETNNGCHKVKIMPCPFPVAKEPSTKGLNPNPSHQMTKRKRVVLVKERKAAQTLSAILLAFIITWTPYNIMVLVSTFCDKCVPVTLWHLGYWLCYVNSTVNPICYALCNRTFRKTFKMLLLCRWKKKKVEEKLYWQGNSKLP

healthy human subjects = assay: Human single ascending dose study, bowel movements; assay type: in vivo
Human 5-HT3a = Human 5-HT3a (Homo sapiens, UniProt P46098); assay: Radioligand binding: Human 5-HT3a
[1] = target: Rat Ca2+ channel (L, DHP site); assay: Radioligand binding: Rat Ca2+ channel; details: [3H]-(+)PN 200-110 0.04 nM
Human PDE4 = assay: Enzyme inhibition: Human PDE4; details: [3H]-cAMP + cAMP 1 μM, TD-8954 1 μM
Human 5-HT2B = Human 5-HT2B (Homo sapiens, UniProt P41595); assay: Radioligand binding: Human 5-HT2B
Human M1 = Human M1 (Homo sapiens, UniProt P11229); assay: Radioligand binding: Human M1
K+ATP channel = K+ATP channel (Rattus norvegicus, UniProt Q09429); assay: Radioligand binding: K+ATP channel; details: read-out: % Inhibition of specific binding (1 μM)
Bovine 5-HT1D = Bovine 5-HT1D (Bos taurus, UniProt F1MMU1); assay: Radioligand binding: Bovine 5-HT1D
Sequence of Bovine 5-HT1D (F1MMU1 1-377): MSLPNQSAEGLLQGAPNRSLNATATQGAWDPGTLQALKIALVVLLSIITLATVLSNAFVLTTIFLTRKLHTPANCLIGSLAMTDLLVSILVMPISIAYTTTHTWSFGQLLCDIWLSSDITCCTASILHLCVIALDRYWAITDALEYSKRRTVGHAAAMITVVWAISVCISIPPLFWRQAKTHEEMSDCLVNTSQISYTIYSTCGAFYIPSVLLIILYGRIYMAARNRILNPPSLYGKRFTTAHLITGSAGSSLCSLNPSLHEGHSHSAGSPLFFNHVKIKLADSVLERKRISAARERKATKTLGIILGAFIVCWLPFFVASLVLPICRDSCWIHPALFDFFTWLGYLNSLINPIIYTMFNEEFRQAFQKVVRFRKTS

Rat α2 (non-selective) = assay: Radioligand binding: Rat α2; details: [3H]-RX 821002 0.5 nM
5-HT4 receptor = 5-HT4 receptor (Cavia porcellus, UniProt O70528); assay: Guinea pig colonic longitudinal muscle/myenteric plexus; details: isolated tissue, % of primed 5-HT (0.3 μM) maximum
Sequence of 5-HT4 receptor (O70528 whole entry): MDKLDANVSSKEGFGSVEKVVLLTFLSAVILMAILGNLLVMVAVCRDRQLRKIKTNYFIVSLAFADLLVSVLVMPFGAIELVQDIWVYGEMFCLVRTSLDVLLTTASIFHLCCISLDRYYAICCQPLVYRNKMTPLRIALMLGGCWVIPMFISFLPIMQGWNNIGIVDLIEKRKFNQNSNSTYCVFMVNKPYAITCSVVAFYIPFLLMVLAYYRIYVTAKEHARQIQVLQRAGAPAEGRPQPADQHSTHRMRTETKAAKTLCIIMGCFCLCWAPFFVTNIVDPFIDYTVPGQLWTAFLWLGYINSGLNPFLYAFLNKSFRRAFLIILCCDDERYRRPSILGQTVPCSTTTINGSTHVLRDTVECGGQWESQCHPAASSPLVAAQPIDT

Human Y1 = Human Y1 (Homo sapiens, UniProt P25929); assay: Radioligand binding: Human Y1
Human NK3 = Human NK3 (Homo sapiens, UniProt P29371); assay: Radioligand binding: Human NK3
Sequence of Human NK3 (P29371 whole entry): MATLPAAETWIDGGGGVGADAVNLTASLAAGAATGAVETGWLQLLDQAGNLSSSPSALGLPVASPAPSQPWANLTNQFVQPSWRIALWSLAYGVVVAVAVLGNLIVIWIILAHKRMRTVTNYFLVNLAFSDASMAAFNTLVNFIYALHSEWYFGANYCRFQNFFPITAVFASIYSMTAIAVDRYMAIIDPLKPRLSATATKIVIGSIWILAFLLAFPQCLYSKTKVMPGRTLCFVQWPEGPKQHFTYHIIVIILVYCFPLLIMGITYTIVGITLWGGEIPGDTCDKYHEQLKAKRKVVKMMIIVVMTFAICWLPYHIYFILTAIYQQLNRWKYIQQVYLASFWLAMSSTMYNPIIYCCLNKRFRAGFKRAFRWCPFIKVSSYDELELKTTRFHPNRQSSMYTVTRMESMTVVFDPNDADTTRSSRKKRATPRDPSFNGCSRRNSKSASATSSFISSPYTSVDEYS

Rat NMDA = Rat NMDA (Rattus norvegicus, UniProt Q00959); assay: Radioligand binding: Rat NMDA; details: read-out: % Inhibition of specific binding (1 μM)
Rat α1 (non-selective) = assay: Radioligand binding: Rat α1; details: [3H]-prazosin 0.25 nM
Human 5-HT5a = Human 5-HT5a (Homo sapiens, UniProt P47898); assay: Radioligand binding: Human 5-HT5a
Sequence of Human 5-HT5a (P47898 whole entry): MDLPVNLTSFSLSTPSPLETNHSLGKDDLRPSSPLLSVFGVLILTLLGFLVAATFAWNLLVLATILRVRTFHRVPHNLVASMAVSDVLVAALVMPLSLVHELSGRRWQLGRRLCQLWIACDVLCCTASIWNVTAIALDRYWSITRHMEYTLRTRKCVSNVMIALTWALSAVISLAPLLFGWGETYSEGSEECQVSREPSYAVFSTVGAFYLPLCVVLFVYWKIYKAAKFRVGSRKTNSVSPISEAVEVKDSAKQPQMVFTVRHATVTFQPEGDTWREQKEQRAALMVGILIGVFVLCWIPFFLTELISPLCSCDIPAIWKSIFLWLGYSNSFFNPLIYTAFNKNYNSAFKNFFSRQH

rat Nav1.2 = assay: Whole cell voltage-clamp, neuronal sodium current; details: 3 μM for 3 min, n = 3 cells
Guinea pig H2 = Guinea pig H2 (Cavia porcellus, UniProt P47747); assay: Radioligand binding: Guinea pig H2
Sequence of Guinea pig H2 (P47747 whole entry): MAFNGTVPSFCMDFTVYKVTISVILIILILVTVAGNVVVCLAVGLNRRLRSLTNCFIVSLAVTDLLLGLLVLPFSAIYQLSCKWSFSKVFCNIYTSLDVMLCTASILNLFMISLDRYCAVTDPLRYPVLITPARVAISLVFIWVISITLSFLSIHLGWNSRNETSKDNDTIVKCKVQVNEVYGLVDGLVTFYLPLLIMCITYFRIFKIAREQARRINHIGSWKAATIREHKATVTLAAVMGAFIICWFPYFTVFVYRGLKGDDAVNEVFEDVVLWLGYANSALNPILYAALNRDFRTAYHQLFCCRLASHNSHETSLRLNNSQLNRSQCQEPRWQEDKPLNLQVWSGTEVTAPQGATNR

Human COX1 = Human COX1 (Homo sapiens, UniProt P23219); assay: Enzyme inhibition: Human COX1
Sequence of Human COX1 (P23219 24-599): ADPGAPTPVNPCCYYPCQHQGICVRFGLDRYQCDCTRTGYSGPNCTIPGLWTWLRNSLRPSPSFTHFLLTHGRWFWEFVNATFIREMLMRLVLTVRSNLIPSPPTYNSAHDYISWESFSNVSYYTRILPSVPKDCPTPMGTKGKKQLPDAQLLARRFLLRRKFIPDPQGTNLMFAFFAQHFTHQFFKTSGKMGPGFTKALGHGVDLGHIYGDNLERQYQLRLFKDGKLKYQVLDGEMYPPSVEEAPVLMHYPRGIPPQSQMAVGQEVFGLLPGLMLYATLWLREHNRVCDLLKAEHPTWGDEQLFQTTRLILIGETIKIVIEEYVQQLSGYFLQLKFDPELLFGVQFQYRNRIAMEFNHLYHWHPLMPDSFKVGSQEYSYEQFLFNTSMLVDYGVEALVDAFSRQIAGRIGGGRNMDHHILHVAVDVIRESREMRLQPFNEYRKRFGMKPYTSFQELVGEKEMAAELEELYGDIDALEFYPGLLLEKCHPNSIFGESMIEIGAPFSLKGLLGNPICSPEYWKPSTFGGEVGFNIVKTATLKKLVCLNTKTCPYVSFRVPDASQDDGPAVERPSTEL

Human 5-HT2C = Human 5-HT2C (Homo sapiens, UniProt P28335); assay: Radioligand binding: Human 5-HT2C
Human Y2 = Human Y2 (Homo sapiens, UniProt P49146); assay: Radioligand binding: Human Y2
Sequence of Human Y2 (P49146 whole entry): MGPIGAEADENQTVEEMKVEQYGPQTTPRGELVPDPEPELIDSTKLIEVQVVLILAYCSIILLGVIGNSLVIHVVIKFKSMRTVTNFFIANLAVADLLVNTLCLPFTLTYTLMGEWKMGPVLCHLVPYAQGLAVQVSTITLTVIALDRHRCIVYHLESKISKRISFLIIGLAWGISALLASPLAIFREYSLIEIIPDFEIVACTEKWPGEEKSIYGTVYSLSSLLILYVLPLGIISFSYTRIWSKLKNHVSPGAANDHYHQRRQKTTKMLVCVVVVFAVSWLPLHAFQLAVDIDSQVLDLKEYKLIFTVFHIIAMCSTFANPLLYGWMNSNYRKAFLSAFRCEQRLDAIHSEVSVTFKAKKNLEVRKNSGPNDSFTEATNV

Human V2 = Human V2 (Homo sapiens, UniProt P30518); assay: Radioligand binding: Human V2
Human β2 = Human β2 (Homo sapiens, UniProt P07550); assay: Radioligand binding: Human β2
Rat NT (non-selective) = assay: Radioligand binding: Rat NT; details: [125I]-Tyr3-neurotensin 0.05 nM
Rat Ca2+ channel (N) = Rat Ca2+ channel (N) (Rattus norvegicus, UniProt Q02294); assay: biochemical; assay type: binding
Human M3 = Human M3 (Homo sapiens, UniProt P20309); assay: Radioligand binding: Human M3
[2] = read-out: % Inhibition of specific binding (1 μM)

Sequence of Human D4.4 (P21917 whole entry): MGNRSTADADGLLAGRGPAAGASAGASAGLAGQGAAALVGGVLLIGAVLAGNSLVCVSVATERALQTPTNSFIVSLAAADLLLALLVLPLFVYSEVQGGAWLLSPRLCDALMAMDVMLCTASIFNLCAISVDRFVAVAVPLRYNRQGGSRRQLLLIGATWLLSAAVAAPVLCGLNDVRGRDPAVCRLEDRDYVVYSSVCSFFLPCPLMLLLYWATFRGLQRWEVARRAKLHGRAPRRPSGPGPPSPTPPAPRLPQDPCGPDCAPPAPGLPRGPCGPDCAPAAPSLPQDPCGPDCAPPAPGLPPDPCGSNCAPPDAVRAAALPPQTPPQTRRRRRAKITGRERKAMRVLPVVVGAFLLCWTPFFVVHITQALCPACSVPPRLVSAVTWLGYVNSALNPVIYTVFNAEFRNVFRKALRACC

`COC(=O)N1CCC(CN2CCC(CNC(=O)c3cccc4[nH]c(C(C)C)nc34)CC2)CC1` [TD-8954, 4-(4-{[(2-isopropyl-1H-benzoimidazole-4-carbonyl)amino]methyl}-piperidin-1-ylmethyl)piperidine-1-carboxylic acid methyl ester] was tested, and the Ki (Guinea pig H1) was greater than 1000 nM, the pKi (K+V channel) was less than 6 and the “% Inhibition of specific binding (1 μM)” value (K+V channel; TD-8954 1 μM) was −5%. It also gave a Ki (Human D4.4) greater than 1000 nM, an inhibition at 1 µM (Human D4.4; [2]) of 6% and a pKi (Rat P2Y) of less than 6. For the same compound, the “% Inhibition of specific binding (1 μM)” value (Rat P2Y; TD-8954 1 μM) was 8%, the “effect on magnitude of inward human Nav1.5 sodium current” value (human Nav1.5) was “no effect” and the “dose associated with a relaxation response of 0.1 mm” value (rat esophagus) was 0.23 mg/kg. For the same compound, the Ki (Human 5-HT6) was greater than 1000 nM, the Ki (Human CGRP) was greater than 1000 nM and the Ki (Guinea pig κ kappa) was greater than 1000 nM. For the same compound, the inhibition at 1 µM (Guinea pig κ kappa; [2]) was 22%, the Ki (Human M5) was greater than 10000 nM and the “dose producing a maximal response” value (healthy human subjects; single oral dose) was 0.5 mg. For the same compound, the “lowest dose associated with a prokinetic effect” value (healthy human subjects; single oral dose) was 0.1 mg, the “time to first bowel movement compared to placebo” value (healthy human subjects; single oral dose 0.1–20 mg, p < 0.05) was “statistically significant reduction” and the Ki (Human 5-HT3a) was greater than 100000 nM. The pKi [1] was less than 6, the “% Inhibition of control (1 μM)” value (Human PDE4) was −19% and the Ki (Human 5-HT2B) was greater than 1000 nM. For the same compound, the Ki (Human M1) was greater than 1000 nM, the inhibition at 1 µM (K+ATP channel) was 5% and the Ki (Bovine 5-HT1D) was greater than 1000 nM. The pKi (Rat α2 (non-selective)) was less than 6, the “Guinea pig colonic LMMP contractile activity IA (mean % 5-HT max ± SEM)” value (5-HT4 receptor) was 55 % 5-HT max and 55 ± 2 % 5-HT max and the Ki (Human Y1) was greater than 1000 nM. The Ki (Human NK3) was greater than 1000 nM, the inhibition at 1 µM (Human NK3; [2]) was -3% and the inhibition at 1 µM (Rat NMDA) was -6%. For the same compound, the pKi (Rat α1 (non-selective)) was less than 6, the “% Inhibition of specific binding (1 μM)” value (Rat α1 (non-selective); TD-8954 1 μM) was −1% and the Ki (Human 5-HT5a) was greater than 1000 nM. The “effect on magnitude of inward rat Nav1.2a sodium current” value (rat Nav1.2) was “no effect”, the Ki (Guinea pig H2) was greater than 1000 nM and the inhibition at 1 µM (Guinea pig H2; [2]) was 4%. The IC50 (Human COX1) was greater than 1000 nM, the inhibition at 1 µM (Human COX1; read-out: % Inhibition of control (1 μM)) was 2% and the Ki (Human 5-HT2C) was greater than 1000 nM. It also gave a Ki (Human Y2) greater than 1000 nM, an inhibition at 1 µM (Human Y2; [2]) of -5% and a Ki (Human V2) greater than 1000 nM. The Ki (Human β2) was greater than 1000 nM, the pKi (Rat NT (non-selective)) was less than 6 and the “% Inhibition of specific binding (1 μM)” value (Rat NT (non-selective); TD-8954 1 μM) was 4%. For the same compound, the Ki (Rat Ca2+ channel (N)) was greater than 1000 nM and the Ki (Human M3) was greater than 10000 nM.
